In US8945641B2, “Use of gum arabic for improving the growth and survival of bifidobacteria” (Compagnie Gervais Danone, priority 2006, dated 2015):

Tested on: Bifidobacterium animalis ssp lactis I-2494
Experiment: Growth and survival of bifidobacteria in a drinking yogurt with yogurt ferments, acacia gum and/or cysteine, storage at 10° C.
Format: cell-based
Details: acacia gum 0.8%
Description: A drinking yogurt (2.8% of proteins) is manufactured by reconstitution of milk powder, and supplemented with 0.8% (by weight) of acacia gum, as described in Example 1 above. This type of product is chosen for the trials since it is the one that poses the biggest problems in terms of maintaining the population of bifidobacteria during storage. The reconstituted milk, supplemented with acacia gum, is heat treated as described in Example 1 above, and homogenized (150-200 bar).
After cooling to 38-40° C., Streptococcus thermophilus and Lactobacillus delbrueckii ssp. Bulgaricus are added in an amount of 5×10^6 CFU/ml of Streptococcus thermophilus, 5×10^6 CFU/ml of Lactobacillus bulgaricus. Bifidobacterium animalis ssp lactis I-2494 is added in the form of a ferment for direct inoculation, such as those described in application FR 0606421 supplemented with cysteine or not. The supplemented ferment used corresponds to the addition of 1.92×10^7 CFU/ml of Bifidobacterium animalis and 6.9 mg/l of cysteine.
After inoculation, the fermentation is carried out at 38° C., and monitored using the CINAC® system (YSEBAERT) until the curd settling pH is obtained (4.3<pH<4.4).
The curd settling is obtained by drawing off and cooling between 10-20° C., and then stirring.
The product is then packaged in pots and then placed in a cold tunnel (4° C.).
The populations are then counted at 2 h of storage at 15° C., and then 2, 8 14, 28 and 37 days of storage at 10° C.
The same experiment was repeated with a product containing 2.7% of proteins, containing 0.8% of acacia gum, and inoculated with a ferment supplemented with cysteine, corresponding to the addition of 1.90×10^7 CFU/ml of bifidobacteria animalis and 7 mg/l of cysteine.

Compound: N[C@@H](CS)C(=O)O [Control Cysteine, cysteine]
- Number of Bifidus at 2 h of storage (2 h of storage at 15° C., drinking yogurt 2.8% proteins, cysteine 6.9 mg/l where present): 2.1E+8 CFU/g
- Number of Bifidus at D +2 (D+2, repeat, product 2.7% proteins, cysteine 7 mg/l where present): 1.05E+08 CFU/g
- Number of Bifidus at D +2 (D+2 at 10° C., 2.8% proteins, cysteine 6.9 mg/l where present): 1.2E+8 CFU/g
- Number of Bifidus at D +8 (D+8, repeat, 2.7% proteins, cysteine 7 mg/l where present): 9.00E+07 CFU/g
- Number of Bifidus at D +8 (D+8 at 10° C., 2.8% proteins, cysteine 6.9 mg/l where present): 1.8E+8 CFU/g
- Number of Bifidus at D +14 (D+14, repeat, 2.7% proteins, cysteine 7 mg/l where present): 7.00E+07 CFU/g
- Number of Bifidus at D +14 (D+14 at 10° C., 2.8% proteins, cysteine 6.9 mg/l where present): 1.4E+8 CFU/g
- Number of Bifidus at D +21 (D+21, repeat, 2.7% proteins, cysteine 7 mg/l where present): 4.00E+07 CFU/g
- Number of Bifidus at D +28 (D+28, repeat, 2.7% proteins, cysteine 7 mg/l where present): 2.00E+07 CFU/g
- Number of Bifidus at D +28 (D+28 at 10° C., 2.8% proteins, cysteine 6.9 mg/l where present): 8.8E+7 CFU/g
- Number of Bifidus at D +35 (D+35, repeat, 2.7% proteins, cysteine 7 mg/l where present): 6.00E+06 CFU/g
- Number of Bifidus at D +37 (D+37 at 10° C., 2.8% proteins, cysteine 6.9 mg/l where present): 7.8E+7 CFU/g
- Number of Bifidus at D +52 (D+52, repeat, 2.7% proteins, cysteine 7 mg/l where present): 3.00E+06 CFU/g
